Measured values: patent US7951595B2, “Methods for screening modulators of SLC17-type anion transport activity” (National University Corporation Okayama University, priority 2007, dated 2011)

Assays:
human SLC17A9 = target: T1, human SLC17A9 (Homo sapiens, UniProt Q9BYT1, N228S); experiment: Nucleotide transport by human SLC17A9 reconstituted proteoliposomes (valinomycin-induced membrane potential, radiolabelled substrate); type: biochemical
T1 construct: His6 (from pDEST10 vector); made in house; host or cells: insect cells, baculovirus system (Sf9 named for virus production)
T1 sequence (Q9BYT1 1-430 isoform Q9BYT1-2 N222S): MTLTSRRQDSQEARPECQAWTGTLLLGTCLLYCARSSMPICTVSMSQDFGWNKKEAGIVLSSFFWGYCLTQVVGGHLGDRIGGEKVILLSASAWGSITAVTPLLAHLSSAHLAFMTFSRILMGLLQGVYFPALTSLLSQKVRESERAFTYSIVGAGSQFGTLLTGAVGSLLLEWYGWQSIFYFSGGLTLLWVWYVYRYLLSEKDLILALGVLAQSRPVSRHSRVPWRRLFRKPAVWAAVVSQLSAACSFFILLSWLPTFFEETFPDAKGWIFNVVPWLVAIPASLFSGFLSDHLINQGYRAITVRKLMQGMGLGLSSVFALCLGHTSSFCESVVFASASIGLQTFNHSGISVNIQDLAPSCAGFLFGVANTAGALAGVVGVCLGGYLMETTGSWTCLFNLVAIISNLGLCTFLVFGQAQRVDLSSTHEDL
Procedure: (§1) 10 μg of purified SLC17A9 and 0.5 mg of soybean-derived lipids were mixed and incubated at −80° C. for 5 minutes or more. The mixture was thawed quickly by holding the tube in the hands, and was diluted 60-fold with a buffer solution containing 20 mM MOPS-Tris (pH 7.0), 0.15M sodium acetate, 2 mM magnesium acetate and 0.5 mM DTT. This dilution was centrifuged at 200,000×g at 4° C. for one hour, the supernatant was discarded, and the precipitate was resuspended in a buffer solution containing 20 mM MOPS-Tris (pH 7.0), 0.15M sodium acetate, 2 mM magnesium acetate and 0.5 mM DTT, to obtain SLC17A9 reconstituted proteoliposomes. As a control, liposomes without SLC17A9 were used.
The nucleotide transport activity was measured by the following procedure. The reconstituted proteoliposomes were incubated in a buffer solution containing 20 mM MOPS-Tris (pH 7.0), 0.15M potassium acetate, 2 mM magnesium acetate and 4 mM potassium chloride, at 27° C. for 2 minutes, and valinomycin was added thereto to a final concentration of 2 μM. The mixture was incubated for further 2 minutes. The point of addition of 0.1 mM [α-^32P]ATP (3.7 GBq/mmol) was defined as the initiation of activity measurement. At a predetermined time point, 130 μL of the reaction liquid was recovered and centrifuged through a Sephadex G-50 (fine) spin column at 760×g for 2 minutes. The uptake of ATP was measured by measuring the radioactivity included in the reaction liquid that had passed through the column using a liquid scintillation counter. In the measurement of the transport activity for ADP and GTP, [2,8-^3H]ADP (0.37 GBq/mmol) and [α-^32P]GTP (3.7 GBq/mmol) were used instead of ATP as the substrate.
In an experiment for an inhibitor, a predetermined concentration of an inhibitor was added upon incubation of the proteoliposomes.

[1] = system: SLC17 family transporter proteins; experiment: ATP uptake by other SLC17 family proteins reconstituted like SLC17A9; type: biochemical; conditions: 0.1 mM [α-32P]ATP, uptake after 2 minutes, relative to SLC17A9 protein
Procedure: as §1
The nucleotide transport activity was measured by the following procedure. The reconstituted proteoliposomes were incubated in a buffer solution containing 20 mM MOPS-Tris (pH 7.0), 0.15M potassium acetate, 2 mM magnesium acetate and 4 mM potassium chloride, at 27° C. for 2 minutes, and valinomycin was added thereto to a final concentration of 2 μM. The mixture was incubated for further 2 minutes. […] At a predetermined time point, 130 μL of the reaction liquid was recovered and centrifuged through a Sephadex G-50 (fine) spin column at 760×g for 2 minutes.
Each of the transporter proteins that belong to the SLC17 family was purified in the same manner as in the case of SLC17A9, and was reconstituted according to the technique of Example 11.

Molecule: CC(C)[C@@H]1NC(=O)[C@H](C)OC(=O)[C@@H](C(C)C)NC(=O)[C@@H](C(C)C)OC(=O)[C@H](C(C)C)NC(=O)[C@H](C)OC(=O)[C@@H](C(C)C)NC(=O)[C@@H](C(C)C)OC(=O)[C@H](C(C)C)NC(=O)[C@H](C)OC(=O)[C@@H](C(C)C)NC(=O)[C@@H](C(C)C)OC1=O [valinomycin]
- effect on uptake of radioactive ATP (human SLC17A9; ATP 100 μM, valinomycin 2 μM, FIG. 13(B)): activated

Molecule: Cc1cc(-c2ccc(/N=N/c3ccc4c(S(=O)(=O)O)cc(S(=O)(=O)O)c(N)c4c3O)c(C)c2)ccc1/N=N/c1ccc2c(S(=O)(=O)O)cc(S(=O)(=O)O)c(N)c2c1O [Evans Blue]
- IC50 (human SLC17A9; SLC17A9 reconstituted proteoliposomes, FIG. 17B): 40 nM

Molecule: Cl [chloride ions]
- chloride ion concentration at which ATP uptake activity reached a steady state (human SLC17A9; chloride ions at various concentrations, FIG. 14): 4 mM

Molecule: C=C1[C@@H]2CC[C@H]3[C@]4(C)C[C@H](O[C@@H]5O[C@H](CO)[C@@H](OS(=O)(=O)O)[C@H](OS(=O)(=O)O)[C@H]5OC(=O)CC(C)C)C[C@@H](C(=O)O)[C@H]4CC[C@]3(C2)[C@H]1O [atractyloside]
- effect of addition on the ATP uptake (human SLC17A9; atractyloside 200 μM, with or without Mg2+, FIG. 17(C)): Only when Mg^2+ was present, the ATP uptake was inhibited

B1: SLC17A9 protein: purified SLC17A9 membrane protein, vesicular nucleotide transporter (protein, UniProt Q9BYT1 1-436, looked up)
Voltage-gated purine …: MQPPPDEARRDMAGDTQWSRPECQAWTGTLLLGTCLLYCARSSMPICTVSMSQDFGWNKKEAGIVLSSFFWGYCLTQVVGGHLGDRIGGEKVILLSASAWGSITAVTPLLAHLSSAHLAFMTFSRILMGLLQGVYFPALTSLLSQKVRESERAFTYSIVGAGSQFGTLLTGAVGSLLLEWYGWQSIFYFSGGLTLLWVWYVYRYLLSEKDLILALGVLAQSRPVSRHNRVPWRRLFRKPAVWAAVVSQLSAACSFFILLSWLPTFFEETFPDAKGWIFNVVPWLVAIPASLFSGFLSDHLINQGYRAITVRKLMQGMGLGLSSVFALCLGHTSSFCESVVFASASIGLQTFNHSGISVNIQDLAPSCAGFLFGVANTAGALAGVVGVCLGGYLMETTGSWTCLFNLVAIISNLGLCTFLVFGQAQRVDLSSTHEDL
- ATP Transport (%) [1]: 100.0%

B2: Sialin: SLC17 family transporter protein, gene SLC17A5 (protein, UniProt Q9NRA2 1-495, looked up)
Sialin: MRSPVRDLARNDGEESTDRTPLLPGAPRAEAAPVCCSARYNLAILAFFGFFIVYALRVNLSVALVDMVDSNTTLEDNRTSKACPEHSAPIKVHHNQTGKKYQWDAETQGWILGSFFYGYIITQIPGGYVASKIGGKMLLGFGILGTAVLTLFTPIAADLGVGPLIVLRALEGLGEGVTFPAMHAMWSSWAPPLERSKLLSISYAGAQLGTVISLPLSGIICYYMNWTYVFYFFGTIGIFWFLLWIWLVSDTPQKHKRISHYEKEYILSSLRNQLSSQKSVPWVPILKSLPLWAIVVAHFSYNWTFYTLLTLLPTYMKEILRFNVQENGFLSSLPYLGSWLCMILSGQAADNLRAKWNFSTLCVRRIFSLIGMIGPAVFLVAAGFIGCDYSLAVAFLTISTTLGGFCSSGFSINHLDIAPSYAGILLGITNTFATIPGMVGPVIAKSLTPDNTVGEWQTVFYIAAAINVFGAIFFTLFAKGEVQNWALNDHHGHRH
- ATP Transport (%) [1]: 2.1 ± 0.8%

B3: NPT1: SLC17 family transporter protein, gene SLC17A1 (protein, UniProt Q14916 1-467, looked up)
Sodium-dependent phosphate …: MQMDNRLPPKKVPGFCSFRYGLSFLVHCCNVIITAQRACLNLTMVVMVNSTDPHGLPNTSTKKLLDNIKNPMYNWSPDIQGIILSSTSYGVIIIQVPVGYFSGIYSTKKMIGFALCLSSVLSLLIPPAAGIGVAWVVVCRAVQGAAQGIVATAQFEIYVKWAPPLERGRLTSMSTSGFLLGPFIVLLVTGVICESLGWPMVFYIFGACGCAVCLLWFVLFYDDPKDHPCISISEKEYITSSLVQQVSSSRQSLPIKAILKSLPVWAISTGSFTFFWSHNIMTLYTPMFINSMLHVNIKENGFLSSLPYLFAWICGNLAGQLSDFFLTRNILSVIAVRKLFTAAGFLLPAIFGVCLPYLSSTFYSIVIFLILAGATGSFCLGGVFINGLDIAPRYFGFIKACSTLTGMIGGLIASTLTGLILKQDPESAWFKTFILMAAINVTGLIFYLIVATAEIQDWAKEKQHTRL
- ATP Transport (%) [1]: 2.0 ± 1.1%
